{"source": "paper PMC10669542", "about": "“Ascorbate Peroxidase 2 (APX2) of Chlamydomonas Binds Copper and Modulates the Copper Insertion into Plastocyanin” (Antioxidants, 2023)", "molecular_target": "T1, APX2 (recombinant His-tagged APX2) (Chlamydomonas reinhardtii, UniProt A0A2K3DPX4)", "T1 construct": "gene CHLRE_06g285150v5", "T1 sequence (A0A2K3DPX4 97-337)": "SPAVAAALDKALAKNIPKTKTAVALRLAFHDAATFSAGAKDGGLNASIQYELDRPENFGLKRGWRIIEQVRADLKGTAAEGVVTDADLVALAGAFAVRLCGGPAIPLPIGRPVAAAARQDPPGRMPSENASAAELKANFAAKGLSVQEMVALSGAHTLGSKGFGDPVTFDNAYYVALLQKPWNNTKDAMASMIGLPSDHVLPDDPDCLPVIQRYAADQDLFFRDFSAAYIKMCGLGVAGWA", "test": "peroxidase assay, tetraguaiacol formation at […] nm", "type": "biochemical", "conditions": "electron donor, 10 mM; H2O2 varied 0-1 mM; 0.2 uM enzyme; 20 mM potassium phosphate pH 6.0"}
{"smiles": "COc1ccccc1O", "note": "[guaiacol]", "values": [{"measurement": "peroxidase assay, tetraguaiacol formation at 470 nm", "value": "The enzyme demonstrated activity in the presence of guaiacol, a well-known electron donor for peroxidases"}]}
